Counter-ions that a name gives are not always drawn. Like-named read-outs stand apart in the source and are kept apart here.

The source of these data is US20130116241A1, “NOVEL INHIBITOR COMPOUNDS OF PHOSPHODIESTERASE TYPE 10A” (AbbVie Inc., priority 2011, published 2013).

The target of the assay is human PDE10A (UniProt Q9Y233). Briefly: Measurement of PDE activity (recombinant enzyme, HTRF cAMP kit). The settings on record: Table 1, substrate 20 nM for PDE10, 60 minutes at 29 C. Type of assay: biochemical. An outline of the steps: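 HTRF detection of cAMP left after hydrolysis, expressed as percent of uninhibited control to derive IC50. Reaction: serially diluted inhibitor mixed with recombinant enzyme, started with 20 nM cAMP, 60 min at 29 °C in Tris-HCl pH 7.5 buffer containing MgCl2 and BSA.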
Sequence of human PDE10A (Q9Y233 290-1055 limits assumed): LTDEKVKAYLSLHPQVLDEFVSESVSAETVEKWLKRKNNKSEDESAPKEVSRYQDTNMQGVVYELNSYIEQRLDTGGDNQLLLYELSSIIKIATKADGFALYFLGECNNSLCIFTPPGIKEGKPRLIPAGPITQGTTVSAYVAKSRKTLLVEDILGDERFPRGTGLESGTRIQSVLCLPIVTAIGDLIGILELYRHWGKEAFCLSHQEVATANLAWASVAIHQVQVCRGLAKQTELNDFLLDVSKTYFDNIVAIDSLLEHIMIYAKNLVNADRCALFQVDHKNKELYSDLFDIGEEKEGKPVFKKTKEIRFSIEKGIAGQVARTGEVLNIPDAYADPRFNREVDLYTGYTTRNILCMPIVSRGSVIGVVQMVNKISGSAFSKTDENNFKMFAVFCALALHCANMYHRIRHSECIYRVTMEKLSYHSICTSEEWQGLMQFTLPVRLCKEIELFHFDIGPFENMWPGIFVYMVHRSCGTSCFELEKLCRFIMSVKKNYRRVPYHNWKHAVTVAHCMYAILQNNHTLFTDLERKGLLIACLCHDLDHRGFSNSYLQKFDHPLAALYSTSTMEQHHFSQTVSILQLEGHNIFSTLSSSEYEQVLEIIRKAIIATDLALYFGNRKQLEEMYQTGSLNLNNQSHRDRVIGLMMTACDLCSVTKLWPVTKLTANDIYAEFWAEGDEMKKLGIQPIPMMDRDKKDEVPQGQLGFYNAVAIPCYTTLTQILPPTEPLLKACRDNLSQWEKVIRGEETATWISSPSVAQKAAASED

Take `O=c1c2c(N3CCOCC3)cccc2cnn1CCc1ccc2ccccc2n1` [compound 329, hydrochloride]: the IC50 (read-out: IC50) was below 100 nM.

For `O=c1c2c(N3CCCC4(CC3)CNCCO4)cccc2cnn1CCc1cn2ccccc2n1` (stereo not drawn) [compound 330, dihydrochloride], the IC50 (read-out: IC50) lay in the range of 200 to 500 nM.

As for `O=c1c2c(N3CCC[C@@H](O)C3)cccc2cnn1CCc1cn2ccccc2n1` [compound 332], the IC50 (read-out: IC50) fell in the range of 200 to 500 nM.

As for `O=c1c2c(N3CCC[C@H](O)C3)cccc2cnn1CCc1cn2ccccc2n1` [compound 333], the IC50 (read-out: IC50) is below 100 nM.

For the molecule `O=c1c2c(N3CC4(COC4)C3)cccc2cnn1CCc1cn2ccccc2n1` [compound 334, 2-[2-(imidazo[1,2-a]pyridin-2-yl)ethyl]-8-(2-oxa-6-azaspiro[3.3]hept-6-yl)phthalazin-1(2H)-one], the half-inhibitory concentration (IC50) (read-out: IC50) lay in the range of 100 to 200 nM.

As for `O=c1c2c(C3CCOC3)cccc2cnn1CCc1cn2ccccc2n1` (stereo not drawn) [compound 337, 2-[2-(imidazo[1,2-a]pyridin-2-yl)ethyl]-8-(tetrahydrofuran-3-yl)phthalazin-1(2H)-one], the IC50 (read-out: IC50) is below 100 nM.

In the case of `O=c1c2c(N3C4CCC3COC4)cccc2cnn1CCc1cn2ccccc2n1` [compound 338, 2-[2-(imidazo[1,2-a]pyridin-2-yl)ethyl]-8-(3-oxa-8-azabicyclo[3.2.1]oct-8-yl)phthalazin-1(2H)-one], the IC50 was below 100 nM.

Regarding `O=c1c2c(N3CCC4(COC4)C3)cccc2cnn1CCc1cn2ccccc2n1` [compound 339, 2-[2-(imidazo[1,2-a]pyridin-2-yl)ethyl]-8-(2-oxa-6-azaspiro[3.4]oct-6-yl)phthalazin-1(2H)-one], where the note is “read-out: IC50”, the concentration for half-maximal inhibition (IC50) was below 100 nM.

For the molecule `O=c1c2c(N3CCC(O)CC3)cccc2cnn1CCc1cn2ccccc2n1` [compound 341, 8-(4-hydroxypiperidin-1-yl)-2-[2-(imidazo[1,2-a]pyridin-2-yl)ethyl]phthalazin-1(2H)-one], the concentration for half-maximal inhibition (IC50) (read-out: IC50) was below 100 nM.

In the case of `Cc1ncc(-c2cccc3cnn(CCc4cn5ccccc5n4)c(=O)c23)cn1` [compound 342, 2-[2-(imidazo[1,2-a]pyridin-2-yl)ethyl]-8-(2-methylpyrimidin-5-yl)phthalazin-1(2H)-one], under “read-out: IC50”, the IC50 fell in the range of 100 to 200 nM.

`O=c1c2c(-c3cnc(C4CC4)nc3)cccc2cnn1CCc1cn2ccccc2n1` [compound 343, 8-(2-cyclopropylpyrimidin-5-yl)-2-[2-(imidazo[1,2-a]pyridin-2-yl)ethyl]phthalazin-1(2H)-one]: the IC50 (read-out: IC50) lay within 200 to 500 nM.

As for `O=c1c2c(-c3ccnnc3)cccc2cnn1CCc1cn2ccccc2n1` [compound 344, 2-[2-(imidazo[1,2-a]pyridin-2-yl)ethyl]-8-(pyridazin-4-yl)phthalazin-1(2H)-one], the IC50 (read-out: IC50) lay within 100 to 200 nM.

Regarding `O=c1c2c(-c3cncc(F)c3)cccc2cnn1CCc1cn2ccccc2n1` [compound 345, hydrochloride], for the setting “read-out: IC50”, the half-maximal inhibitory concentration (IC50) is 100 to 200 nM.

Take `COc1ncc(-c2cccc3cnn(CCc4cn5ccccc5n4)c(=O)c23)cn1` [compound 347, 2-[2-(imidazo[1,2-a]pyridin-2-yl)ethyl]-8-(2-methoxypyrimidin-5-yl)phthalazin-1(2H)-one]: the IC50 (read-out: IC50) fell in the range of 100 to 200 nM.

For `O=c1c2c(-c3ccnc(C(F)(F)F)c3)cccc2cnn1CCc1cn2ccccc2n1` [compound 348, 2-[2-(imidazo[1,2-a]pyridin-2-yl)ethyl]-8-[2-(trifluoromethyl)pyridin-4-yl]phthalazin-1(2H)-one], the IC50 (read-out: IC50) was in the range of 100 to 200 nM.

As to `O=c1c2c(N3CC4CCC(C3)O4)cccc2cnn1CCc1cn2ccccc2n1` [compound 349, 2-[2-(imidazo[1,2-a]pyridin-2-yl)ethyl]-8-(8-oxa-3-azabicyclo[3.2.1]oct-3-yl)phthalazin-1(2H)-one], the IC50 (read-out: IC50) is below 100 nM.

As for `O=c1c2c(C3CCNCC3)cccc2cnn1CCc1cn2ccccc2n1` [compound 354, hydrochloride], the 50% inhibitory concentration (IC50) (read-out: IC50) is below 100 nM.

As for `O=c1c2c(C3CCOCC3)cccc2cnn1CCc1cn2ccccc2n1` [compound 355, 2-[2-(imidazo[1,2-a]pyridin-2-yl)ethyl]-8-(tetrahydro-2H-pyran-4-yl)phthalazin-1(2H)-one], the half-maximal inhibitory concentration (IC50) (read-out: IC50) is below 100 nM.

Take `O=c1c2c(-c3ccco3)cccc2cnn1CCc1cn2ccccc2n1` [compound 358, hydrochloride]: the IC50 (read-out: IC50) lay within 100 to 200 nM.

For the molecule `Cn1cc(-c2cccc3cnn(CCc4cn5ccccc5n4)c(=O)c23)cn1` [compound 359, hydrochloride], for the setting “read-out: IC50”, the IC50 was below 100 nM.

Regarding `O=c1c2c(C3CCNCC3)cccc2cnn1CCc1cn2c(n1)CCCC2` [compound 365, hydrochloride], the IC50 (read-out: IC50) was below 100 nM.

On to `NCC1CC(Cl)CN1c1cccc2cnn(CCc3cn4ccccc4n3)c(=O)c12` (stereo not drawn) [compound 366, trifluoroacetate], for which the concentration for half-maximal inhibition (IC50) (read-out: IC50) was below 100 nM.

In the case of `O=c1c2c(-c3ccncc3)cccc2c(-c2ccncc2)nn1CCc1cn2ccccc2n1` [compound 367, 2-[2-(imidazo[1,2-a]pyridin-2-yl)ethyl]-4,8-di(pyridin-4-yl)phthalazin-1(2H)-one], the IC50 (read-out: IC50) was below 100 nM.

`O=c1c2c(-c3ccncc3)cccc2c(Br)nn1CCc1cn2ccccc2n1` [compound 370, 4-bromo-2-[2-(imidazo[1,2-a]pyridin-2-yl)ethyl]-8-(pyridin-4-yl)phthalazin-1(2H)-one]: the IC50 (read-out: IC50) is below 100 nM.

As for `O=c1c2c(N3CC4CCOC4C3)cccc2cnn1CCc1cn2ccccc2n1` (stereo not drawn) [compound 374, hydrochloride], the IC50 (read-out: IC50) fell in the range of 200 to 500 nM.

`O=c1c2c(C3=CCNCC3)cccc2cnn1CCc1cn2ccccc2n1` [compound 375, hydrochloride]: the IC50 was below 100 nM.

Consider `O=c1c2c(N[C@H]3CCOC3)cccc2cnn1CCc1cn2ccccc2n1` [compound 376, 2-[2-(imidazo[1,2-a]pyridin-2-yl)ethyl]-8-[(3S)-tetrahydrofuran-3-ylamino]phthalazin-1(2H)-one], for which, where the note is “read-out: IC50”, the half-inhibitory concentration (IC50) was below 100 nM.

For the molecule `O=c1c2c(N[C@@H]3CCOC3)cccc2cnn1CCc1cn2ccccc2n1` [compound 377, 2-[2-(imidazo[1,2-a]pyridin-2-yl)ethyl]-8-[(3R)-tetrahydrofuran-3-ylamino]phthalazin-1(2H)-one], the 50% inhibitory concentration (IC50) (read-out: IC50) was below 100 nM.

With `O=c1c2c(OCC3COC(CO)CO3)cccc2cnn1CCc1cn2ccccc2n1` (stereo not drawn) [compound 378, 8-{[5-(hydroxymethyl)-1,4-dioxan-2-yl]methoxy}-2-[2-(imidazo[1,2-a]pyridin-2-yl)ethyl]phthalazin-1(2H)-one], the 50% inhibitory concentration (IC50) (read-out: IC50) was in the range of 200 to 500 nM.

Take `O=c1c2c(OCc3ccncc3)cccc2cnn1CCc1cn2ccccc2n1` [compound 380, 2-[2-(imidazo[1,2-a]pyridin-2-yl)ethyl]-8-(pyridin-4-ylmethoxy)phthalazin-1(2H)-one]: the IC50 (read-out: IC50) is 100 to 200 nM.

In the case of `O=c1c2c(Oc3cccnc3)cccc2cnn1CCc1cn2ccccc2n1` [compound 382, 2-[2-(imidazo[1,2-a]pyridin-2-yl)ethyl]-8-(pyridin-3-yloxy)phthalazin-1(2H)-one], the IC50 (read-out: IC50) was below 100 nM.

As for `O=c1c2c(NCC3COC3)cccc2cnn1CCc1cn2ccccc2n1` [compound 383, 2-[2-(imidazo[1,2-a]pyridin-2-yl)ethyl]-8-[(oxetan-3-ylmethyl)amino]phthalazin-1(2H)-one], where the note is “read-out: IC50”, the IC50 is below 100 nM.

As for `O=c1c2c(NC3CCOCC3)cccc2cnn1CCc1cn2ccccc2n1` [compound 384, 2-[2-(imidazo[1,2-a]pyridin-2-yl)ethyl]-8-(tetrahydro-2H-pyran-4-ylamino)phthalazin-1(2H)-one], the half-maximal inhibitory concentration (IC50) (read-out: IC50) lay in the range of 100 to 200 nM.
